Tests used:
SW48 [1] = test: CellTiterGlo in vitro viability, 4-day treatment, SW48; format: cell-based
Excerpt: (§1) Growth inhibition %: 0-99=delayed proliferation, 100=growth arrest/stasis, 101-200=reduction in cell number/cell death.

HCT116 = test: CellTiterGlo in vitro viability, 4-day treatment, HCT116; format: cell-based
Excerpt: as §1

WRN = WRN (Homo sapiens, UniProt Q14191); test: WRN ATPase activity assay; format: biochemical; details: assay of WO2022/249060
Excerpt: (§2) According to the assays disclosed in the application PCT/IB2022/054850 published as WO2022/249060, which is hereby incorporated by reference, the compounds were active as shown in Table X

SW48 [2] = test: Proliferation assay SW48; format: cell-based; details: Homo sapiens, assay of WO2022/249060
Excerpt: as §2

DLD1-WRN-KO = test: Proliferation assay DLD1-WRN-KO; format: cell-based; details: assay of WO2022/249060
Excerpt: as §2

[3] = test system: SW48 colorectal carcinoma cells; test: SW48 xenograft efficacy in nude mice; format: in vivo; details: Example 12; trametinib 0.3 mg/kg p.o. qd; BRAF WT SW48
Protocol: All animals were allowed to adapt for 7 days and housed in a pathogen-controlled environment (5 mice/Type III cage) with access to food and water ad libitum and were identified with transponders.
5.0×10^6 SW48 colorectal carcinoma cells were implanted subcutaneously in nude mice (Charles River, Germany). Treatment was initiated when tumors reached 150-200 mm^3 volume. Efficacy studies and tumor response were measured as above.

WRN, sequence (Q14191 whole entry): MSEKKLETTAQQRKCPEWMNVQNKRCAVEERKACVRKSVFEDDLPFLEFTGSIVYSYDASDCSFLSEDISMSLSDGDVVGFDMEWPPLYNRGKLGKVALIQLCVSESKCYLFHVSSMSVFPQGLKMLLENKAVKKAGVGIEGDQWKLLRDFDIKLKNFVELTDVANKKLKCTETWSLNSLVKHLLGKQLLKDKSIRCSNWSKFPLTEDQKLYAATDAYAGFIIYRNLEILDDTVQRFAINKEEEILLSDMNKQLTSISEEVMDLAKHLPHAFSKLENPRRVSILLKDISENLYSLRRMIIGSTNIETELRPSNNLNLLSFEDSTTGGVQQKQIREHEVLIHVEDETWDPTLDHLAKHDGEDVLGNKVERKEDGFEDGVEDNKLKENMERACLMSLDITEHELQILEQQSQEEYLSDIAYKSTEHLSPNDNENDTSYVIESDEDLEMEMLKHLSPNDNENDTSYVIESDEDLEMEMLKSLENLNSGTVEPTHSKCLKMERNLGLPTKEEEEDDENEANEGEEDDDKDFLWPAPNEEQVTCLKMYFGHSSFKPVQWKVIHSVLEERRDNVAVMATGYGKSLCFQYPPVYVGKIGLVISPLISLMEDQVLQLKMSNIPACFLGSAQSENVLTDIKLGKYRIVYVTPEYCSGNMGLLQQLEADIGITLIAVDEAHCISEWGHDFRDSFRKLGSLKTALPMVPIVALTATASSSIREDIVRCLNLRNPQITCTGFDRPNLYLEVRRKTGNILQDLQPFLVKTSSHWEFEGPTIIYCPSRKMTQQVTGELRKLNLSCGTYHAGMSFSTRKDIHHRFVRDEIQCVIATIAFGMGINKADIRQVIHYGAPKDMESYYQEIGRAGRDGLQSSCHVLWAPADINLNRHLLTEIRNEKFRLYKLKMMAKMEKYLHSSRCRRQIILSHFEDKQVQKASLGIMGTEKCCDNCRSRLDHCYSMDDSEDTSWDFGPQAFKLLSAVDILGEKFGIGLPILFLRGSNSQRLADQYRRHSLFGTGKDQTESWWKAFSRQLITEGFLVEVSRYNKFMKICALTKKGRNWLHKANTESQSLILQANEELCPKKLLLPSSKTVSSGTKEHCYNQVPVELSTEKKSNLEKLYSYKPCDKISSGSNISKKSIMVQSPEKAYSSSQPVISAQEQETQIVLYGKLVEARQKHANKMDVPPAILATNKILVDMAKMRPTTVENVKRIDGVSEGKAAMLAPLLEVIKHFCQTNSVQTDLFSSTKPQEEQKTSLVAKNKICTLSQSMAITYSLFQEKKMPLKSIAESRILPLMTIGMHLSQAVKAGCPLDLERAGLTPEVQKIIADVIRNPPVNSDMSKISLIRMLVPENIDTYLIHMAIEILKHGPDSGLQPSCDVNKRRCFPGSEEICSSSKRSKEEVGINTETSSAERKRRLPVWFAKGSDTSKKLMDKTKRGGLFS

Row | Compound | proliferation of SW48 cells, single agent (SW48 [1]) | further results
1 | O=c1[nH]cc(F)c(=O)[nH]1 [5-fluorouracil] | inhibited | –
2 | C[C@@]1(CO)[C@H](O)CC[C@@]2(C)[C@H]1CC[C@H]1C[C@@H]3C[C@@]12CC[C@]3(O)CO [Aphidicolin, aphidicolin] | inhibited | –
3 | CC[C@@]1(O)C(=O)OCc2c1cc1n(c2=O)Cc2cc3ccccc3nc2-1 [Camptothecin, camptothecin] | inhibited | –
4 | CCc1c(N2CCN(C(=O)c3ncccc3O)CC2)c(=O)n2nc(C3=CCOCC3)nc2n1CC(=O)Nc1ccc(C(F)(F)F)cc1C [Compound B] | inhibited | proliferation of HCT116 cells, single agent (HCT116): inhibited
5 | COc1cccc2c1C(=O)c1c(O)c3c(c(O)c1C2=O)C[C@@](O)(C(=O)CO)C[C@@H]3O[C@H]1C[C@H](N)[C@H](O)[C@H](C)O1 [Doxorubicin, doxorubicin] | inhibited | proliferation of HCT116 cells, single agent (HCT116): inhibited
6 | Nc1ccn([C@@H]2O[C@H](CO)[C@@H](O)C2(F)F)c(=O)n1 [Gemcitabin, gemcitabine] | inhibited | –
7 | COc1ncc(-c2nc3c(n2C(C)C)[C@H](c2ccc(Cl)cc2)N(c2cc(Cl)cn(C)c2=O)C3=O)c(OC)n1 [HDM201] | to some extent | –
8 | C[C@@H]1CN(CC(=O)Nc2ccc3c(c2)Cc2cccc(-c4cc(=O)cc(N5CCOCC5)o4)c2S3)C[C@H](C)O1 [KU-60019] | inhibited | –
9 | O=c1cc(N2CCOCC2)oc2c(-c3cccc4c3sc3ccccc34)cccc12 [NU7441 (KU-57788)] | inhibited | –
10 | CCc1nc2c(NC(C)(C)C)nc(Nc3ccc4nc(OCCN5CCOCC5)ccc4c3)nc2[nH]1 [QAP1] | inhibited | –
11 | CCc1c(N2CCN(C(=O)c3ncccc3O)CC2)c(=O)n2nc(C3=CCN(C(=O)CCC(=O)N[C@H](C(=O)N4C[C@H](O)C[C@H]4C(=O)N[C@@H](C)c4ccc(-c5scnc5C)cc4)C(C)(C)C)CC3)nc2n1CC(=O)Nc1ccc(C(F)(F)F)cc1C [X, (2S,4R)-1-((S)-2-(4-(4-(5-ethyl-6-(4-(3-hydroxypicolinoyl)piperazin-1-yl)-4-(2-((2-methyl-4-(trifluoromethyl)phenyl)amino)-2-oxoethyl)-7-oxo-4,7-dihydro-[1,2,4]triazolo[1,5-a]pyrimidin-2-yl)-3,6-dihydropyridin-1(2H)-yl)-4-oxobutanamido)-3,3-dimethylbutanoyl)-4-hydroxy-N—((S)-1-(4-(4-methylthiazol-5-yl)phenyl)ethyl)pyrrolidine-2-carboxamide] | – | IC50 (WRN): 160 nM; GI50 (SW48 [2]): 3840 nM; GI50 (DLD1-WRN-KO): > 10000 nM
12 | CCc1c(N2CCN(C(=O)c3ncccc3O)CC2)c(=O)n2nc(C3=CCN(C(=O)[C@H](CC(C)C)NC(=O)[C@@H](O)[C@H](N)Cc4ccccc4)CC3)nc2n1CC(=O)Nc1ccc(C(F)(F)F)cc1C [Y, (2S,3R)-3-amino-N—((S)-1-(4-(5-ethyl-6-(4-(3-hydroxypicolinoyl)piperazin-1-yl)-4-(2-((2-methyl-4-(trifluoromethyl)phenyl)amino)-2-oxoethyl)-7-oxo-4,7-dihydro-[1,2,4]triazolo[1,5-a]pyrimidin-2-yl)-3,6-dihydropyridin-1(2H)-yl)-4-methyl-1-oxopentan-2-yl)-2-hydroxy-4-phenylbutanamide] | – | IC50 (WRN): 140 nM; GI50 (SW48 [2]): 1190 nM; GI50 (DLD1-WRN-KO): > 10000 nM
13 | CCc1c(N2CCN(C(=O)c3ncccc3O)CC2)c(=O)n2nc(C3=CCN(C(=O)CCCCCOc4ccc5c(c4)C(=O)N(C4CCC(=O)NC4=O)C5)CC3)nc2n1CC(=O)Nc1ccc(C(F)(F)F)cc1C (stereo not drawn) [Z, 2-(2-(1-(6-((2-(2,6-dioxopiperidin-3-yl)-3-oxoisoindolin-5-yl)oxy)hexanoyl)-1,2,3,6-tetrahydropyridin-4-yl)-5-ethyl-6-(4-(3-hydroxypicolinoyl)piperazin-1-yl)-7-oxo-[1,2,4]triazolo[1,5-a]pyrimidin-4(7H)-yl)-N-(2-methyl-4-(trifluoromethyl)phenyl)acetamide] | – | IC50 (WRN): 90 nM; GI50 (SW48 [2]): 1310 nM; GI50 (DLD1-WRN-KO): > 10000 nM
14 | N.N.[Cl][Pt][Cl] [cisplatin] | inhibited | –
15 | CC(=O)Nc1cccc(-n2c(=O)n(C3CC3)c(=O)c3c(Nc4ccc(I)cc4F)n(C)c(=O)c(C)c32)c1 [trametinib] | – | effect on tumor growth [3]: no effect
16 | bleomycin | inhibited | –

From patent US20240197715A1, “PHARMACEUTICAL COMBINATIONS AND USES THEREOF” (NOVARTIS AG, priority 2022, published 2024)
